Measured values from US7173040B2, “Farnesyl transferase inhibiting 6-[(substituted phenyl)methyl]-quinoline and quinazoline derinazoline derivatives” (Janssen Pharmaceutica N.V., priority 2000, dated 2007).

| SMILES | melting point |
| --- | --- |
| Cn1cncc1C(O)(c1ccc2c(c1)OCCO2)c1ccc2[nH]c(=O)nc(-c3cccc(Cl)c3)c2c1 (centres unmarked) [Example B30, 4-(3-chlorophenyl)-6-[(2,3-dihydro-1,4-benzodioxin-6-yl)hydroxy(1-methyl-1H-imidazol-5-yl)methyl]-2(1H)-quinazolinone] | > 260 °C |
| CCOC(=O)c1cn2c(cc(-c3cccc(Cl)c3)c3cc(C(c4ccc(Cl)cc4)c4nncn4C)ccc32)n1 (centres unmarked) [Example B35, ethyl 5-(3-chlorophenyl)-7-[(4-chlorophenyl)(4-methyl-4H-1,2,4-triazol-3-yl)methyl]-imidazo[1,2-a]quinoline-2-carboxylate] | 220 °C |
| Cn1cnnc1C(N)(c1ccc(I)cc1)c1ccc2c(c1)c(-c1cccc(Cl)c1)nc1nnnn12 (stereo not drawn) [Example B29c, 5-(3-chlorophenyl)-α-(4-iodophenyl)-α-(4-methyl-4H-1,2,4-triazol-3-yl)-tetrazolo[1,5-a]quinazoline-7-methanamine] | 238 °C |
| Cn1cncc1C(N)(c1ccc(CN)cc1)c1ccc2c(c1)c(-c1cccc(Cl)c1)cc(=O)n2C (centres unmarked) [Example B41e, 6-[amino[4-(aminomethyl)phenyl](1-methyl-1H-imidazol-5-yl)methyl]-4-(3-chlorophenyl)-1-methyl-2(1H)-quinolinone] | 150 °C |
| Cn1cncc1C(N)(c1ccc(C#N)cc1)c1ccc2c(c1)c(-c1cccc(Cl)c1)cc(=O)n2C (centres unmarked) [Example B41d, 4-[amino[4-(3-chlorophenyl)-1,2-dihydro-1-methyl-2-oxo-6quinolinyl](1-methyl-1H-imidazol-5-yl)methyl]-benzonitrile] | 245 °C |
| Cn1cnnc1C(N)(c1ccc(Cl)cc1)c1ccc2c(c1)c(-c1cccc(Cl)c1)nc1nnnn12 (stereo not drawn) [Example B28e, 5-(3-chlorophenyl)-α-(4-chlorophenyl)-α-(4-methyl-4H-1,2,4-triazol-3-yl)-tetrazolo[1,5-a]quinazoline-7-methanamine] | 220 °C |
| Cn1cnnc1C(O)(c1ccc(Cl)cc1)c1ccc2c(c1)c(-c1cccc(Cl)c1)cc(=O)n2C (centres unmarked) [Example B13, 4-(3-chlorophenyl)-6-[(4-chlorophenyl)hydroxy(4-methyl-4H-1,2,4-triazol-3-yl)methyl]-1-methyl-2(1H)-quinolinone] | 182 °C |
| Cl.Cn1cncc1C(O)(c1ccc(C=O)cc1)c1ccc2[nH]c(=O)cc(-c3cccc(Cl)c3)c2c1 (racemic) | > 260 °C |
| Cn1c(=O)cc(-c2cccc(Cl)c2)c2cc(C(O)(c3ccc(Cl)cc3)c3cnccc3Cl)ccc21 (centres unmarked) [Example B39, 4-(3-chlorophenyl)-6-[(4-chlorophenyl)(4-chloro-3-pyridinyl)hydroxymethyl]-1-methyl-2(1H)-quinolinone] | 178 °C |
| Cn1cnnc1C(c1ccc(I)cc1)c1ccc2c(c1)c(-c1cccc(Cl)c1)nc1nnnn12 (centres unmarked) [Example B26b, tetrazolo[1,5-a]quinazoline, 5-(3-chlorophenyl)-7-[(4-iodophenyl)(4methyl-4H-1,2,4-triazol-3-yl)methyl]-] | 150 °C |
| Cn1cncc1C(O)(c1ccc(C=O)cc1)c1ccc2c(c1)c(-c1cccc(Cl)c1)cc(=O)n2C (racemic) [Example B6, (±)-4-[[4-(3-chlorophenyl)-1,2-dihydro-1-methyl-2-oxo-6-quinolinyl]hydroxy(1-methyl-1H-imidazol-5-yl)methyl]benzaldehyde] | 208 °C |
| Cn1cncc1C(O)(c1ccc([N+](=O)[O-])cc1)c1ccc2c(c1)c(-c1cccc(Cl)c1)cc(=O)n2C (racemic) [Example B4, (±)-4-(3-chlorophenyl)-6-[hydroxy(1-methyl-1H-imidazol-5-yl)(4-nitrophenyl)methyl]-1-methyl-2(1H)-quinolinone] | 230 °C |
| Cn1cnnc1C(N)(c1ccc(Cl)cc1)c1ccc2c(c1)c(-c1cccc(Cl)c1)cc(=O)n2C (centres unmarked) [Example B22b, 6-[amino(4-chlorophenyl)(4-methyl-4H-1,2,4-triazol-3-yl)methyl]-4-(3-chlorophenyl)-1-methyl-2(1H)-quinolinone] | 210 °C |
| Cn1cnnc1C(O)(c1ccc(I)cc1)c1ccc2c(c1)C(c1cccc(Cl)c1)Nc1nnnn1-2 (stereo not drawn) [Example B46, 5-(3-chlorophenyl)-4,5-dihydro-α-(4-iodophenyl)-α-(4-methyl-4H-1,2,4-triazol-3-yl)-tetrazolo[1,5-a]quinazoline-7-methanol] | 201 °C |
| Cn1cncc1C(O)(c1ccc(-c2ccc(Cl)cc2)cc1)c1ccc2c(c1)c(-c1cccc(Cl)c1)cc(=O)n2C (racemic) [Example B10, (±)-6-[(4′-chloro[1,1′-biphenyl]-4-yl)hydroxy(1-methyl-1H-imidazol-5-yl)methyl]-4-(3-chlorophenyl)-1-methyl-2(1H)-quinolinone] | 236 °C |
| Cn1c(=O)cc(-c2cccc(Cl)c2)c2cc(C(N)(c3ccc(Cl)cc3)c3cnccc3Cl)ccc21 (centres unmarked) [Example B40b, 6-[amino(4-chlorophenyl)(4-chloro-3-pyridinyl)methyl]-4(3-chlorophenyl)-1-methyl-2(1H)-quinolinone] | 180 °C |
| Cn1cnnc1C(C)(c1ccc(Cl)cc1)c1ccc2c(c1)c(-c1cccc(Cl)c1)cc(=O)n2C.O=C(O)C(=O)O (centres unmarked) [Example B34, 4-(3-chlorophenyl)-6-[1-(4-chlorophenyl)-1-(4-methyl-4H-1,2,4-triazol-3-yl)ethyl]-1-methyl-2(1H)-quinolinone ethanedioate (1:1)] | 130 °C |
| Cn1c(=O)cc(-c2cccc(Cl)c2)c2cc(C(O)(c3ccc(Cl)cc3)c3cnccc3N)ccc21 (centres unmarked) [Example B42, 6-[(4amino-3-pyridinyl)(4-chlorophenyl)hydroxymethyl]-4-(3-chlorophenyl)-1-methyl-2(1H)-quinolinone] | 262 °C |
| Cn1cnnc1C(c1ccc(Cl)cc1)c1ccc2c(c1)c(-c1cccc(Cl)c1)cc(=O)n2C (centres unmarked) [Example B7, 4-(3-chlorophenyl)-6-[(4-chlorophenyl)(4-methyl-4H-1,2,4-triazol-3-yl)methyl]-1-methyl-2(1H)-quinolinone] | 153 °C |
| CSc1nnc(C(O)(c2ccc(Cl)cc2)c2ccc3c(c2)c(-c2cccc(Cl)c2)nc2nnnn23)n1C (stereo not drawn) [Example B28b, 5-(3-chlorophenyl)-α-(4-chlorophenyl)-α-[4-methyl-5-(methylthio)-4H-1,2,4-triazol-3-yl]-tetrazolo[1,5-a]quinazoline-7-methanol] | 65 °C |
| Cn1cncc1C(O)(c1ccc(C(=O)O)cc1)c1ccc2c(c1)c(-c1cccc(Cl)c1)cc(=O)n2C (racemic) [Example B19, (±)-4-[[4-(3-chlorophenyl)-1,2-dihydro-1-methyl-2-oxo-6-quinolinyl]hydroxy(1-methyl-1H-imidazol-5-yl)methyl]benzoic acid] | > 260 °C |
| Cn1cncc1C(O)(c1cccc(CO)c1)c1ccc2c(c1)c(-c1cccc(Cl)c1)cc(=O)n2C (centres unmarked) [Example B45b, 4-(3-chlorophenyl)-6-[hydroxy[3-(hydroxymethyl)phenyl](1-methyl-1H-imidazol-5-yl)methyl]-1-methyl-2(1H)-quinolinone] | 150 °C |
| Cn1cnnc1C(O)(c1ccc(Cl)cc1)c1ccc2c(c1)c(-c1cccc(Cl)c1)cc(=O)n2Cc1ccc(C#N)cc1 (centres unmarked) [Example B33, 4-[[4-(3-chlorophenyl)-6-[(4-chlorophenyl)hydroxy(4-methyl-4H-1,2,4-triazol-3-yl)methyl]-2-oxo-1(2H)-quinolinyl]methyl]-benzonitrile] | 185 °C |
